# Reference: patent US9150592B2, “Heterocyclic nuclear hormone receptor modulators” (AbbVie Inc., priority 2012, dated 2015)
# Columns and labels:
# [1] = test system: IL-6 in A549 cells stimulated with IL-1β; experiment: A549 Cell Assay to Measure Inflammation Markers (inhibition of IL-1β-induced IL-6); type: cell-based; details: intrinsic activity, Emax class ranges; for Emax: Homo sapiens, A549, A549 Cell Assay to Measure Inflammation Markers
# Procedure, shortened: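 Compound pre-incubated with A549 cells 1 h at 37 °C, then stimulated with IL-1β (1 ng/mL final, 0.1% DMSO). Supernatant IL-6 quantified by MSD immunoassay after a further incubation. IC50 and Emax derived.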
# [2] = biological target: T1, Glucocorticoid Receptor (GR) (Homo sapiens, UniProt P04150); experiment: GR Fluorescence Polarization Assay (PolarScreen Glucocorticoid Receptor Competitor Assay, Red); details: IC50 class ranges, read-out: GR binding
# T1 construct: purchased Invitrogen P2893
# T1 sequence (P04150 1-777): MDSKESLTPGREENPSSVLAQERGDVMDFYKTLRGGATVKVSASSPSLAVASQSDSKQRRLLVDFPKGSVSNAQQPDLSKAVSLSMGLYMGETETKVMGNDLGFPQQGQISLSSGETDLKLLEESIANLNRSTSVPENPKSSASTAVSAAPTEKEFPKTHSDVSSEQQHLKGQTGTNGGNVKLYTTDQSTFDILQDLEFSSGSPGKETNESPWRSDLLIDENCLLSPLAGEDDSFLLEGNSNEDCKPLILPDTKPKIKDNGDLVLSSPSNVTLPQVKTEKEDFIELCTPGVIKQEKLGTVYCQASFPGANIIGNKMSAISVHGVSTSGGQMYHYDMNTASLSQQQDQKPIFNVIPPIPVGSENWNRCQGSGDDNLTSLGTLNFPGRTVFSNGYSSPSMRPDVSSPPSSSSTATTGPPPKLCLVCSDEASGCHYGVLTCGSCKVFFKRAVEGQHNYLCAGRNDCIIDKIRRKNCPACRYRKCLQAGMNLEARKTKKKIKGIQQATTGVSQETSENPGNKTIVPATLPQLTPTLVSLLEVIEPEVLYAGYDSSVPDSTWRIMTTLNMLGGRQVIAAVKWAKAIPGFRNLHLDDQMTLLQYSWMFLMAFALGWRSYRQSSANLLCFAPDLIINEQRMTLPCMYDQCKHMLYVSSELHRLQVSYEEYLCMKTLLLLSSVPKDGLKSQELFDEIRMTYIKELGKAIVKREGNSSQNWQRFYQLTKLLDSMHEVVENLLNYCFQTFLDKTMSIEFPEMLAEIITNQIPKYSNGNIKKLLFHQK
# Procedure, shortened: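 Competitive fluorescence-polarization assay using a red fluorescent glucocorticoid tracer with human GR in kit buffer. Compounds serially diluted 1:4 in DMSO, incubated with tracer and GR overnight at 4° C, then polarization read.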
Compound,Emax [1] [%],IC50 [2] [nM],A549 Emax ([1]; A549 Cell Assay to Measure Inflammation Markers)
COc1ccc(C)c(C2SCCNc3c2c(-c2ccccn2)nn3C)c1 (stereo not drawn) [D.28],< 50,1000 to 10000,–
Cc1cc(-c2nn(C)c3c2C(c2ccc(Br)cc2C)SCCN3)on1 (stereo not drawn) [D.29],< 50,< 100,–
"CCn1nc(-c2ccccn2)c2c1NCCSC2c1ccc(Br)cc1C (stereo not drawn) [D.30, 4-(4-bromo-2-methyl-phenyl)-1-ethyl-3-(2-pyridyl)-4,6,7,8-tetrahydropyrazolo[3,4-e][1,4]thiazepine]",> 70,< 100,–
CN(C)c1ccc(-c2nn(C)c3c2C(c2ccc(Cl)cc2Cl)SCCN3)cc1 (stereo not drawn) [D.31],< 50,1000 to 10000,–
Cn1nc(-c2ccccn2)c2c1NCC(C)(C)SC2c1ccc(Cl)cc1Cl (stereo not drawn) [D.32],< 50,< 100,–
Cc1cccc(C2SCCNc3c2c(-c2ccccn2)nn3C)c1C (stereo not drawn) [D.33],< 50,100 to 1000,–
"Cc1sc(Br)cc1C1SCCNc2c1c(-c1ccccn1)nn2C (stereo not drawn) [D.34, 4-(5-bromo-2-methyl-3-thienyl)-1-methyl-3-(2-pyridyl)-4,6,7,8-tetrahydropyrazolo[3,4-e][1,4]thiazepine]",< 50,< 100,–
COc1cc(C2SCCNc3c2c(-c2ccccn2)nn3C)c(C)cc1Cl (stereo not drawn) [D.35],< 50,1000 to 10000,–
Cn1nc(-c2ccccn2)c2c1NCCSC2Cc1ccccc1 (stereo not drawn) [D.36],< 50,> 10000,–
"Cn1nc(-c2ccccn2)c2c1NCCSC2c1ccc(Cl)cc1Br (stereo not drawn) [D.37, 4-(2-bromo-4-chloro-phenyl)-1-methyl-3-(2-pyridyl)-4,6,7,8-tetrahydropyrazolo[3,4-e][1,4]thiazepine]",> 50,< 100,–
Cn1nc(-c2ccccn2)c2c1NCCSC2c1ccc(Cl)cc1C1CC1 (stereo not drawn) [D.38],> 50,< 100,–
Cn1nc(-c2ccccn2)c2c1NCCSC2c1ccc(Cl)cc1CF (stereo not drawn) [D.39],> 60,< 100,–
Cc1ccc(Cl)cc1C1SCCNc2c1c(-c1ccccn1)nn2C (stereo not drawn) [D.40],< 50,< 100,–
Cc1cc(C(F)(F)F)ccc1C1SCCNc2c1c(-c1ccccn1)nn2C (stereo not drawn) [D.41],< 50,< 100,–
"Cc1cc(O)ccc1C1SCCNc2c1c(-c1ccccn1)nn2C (stereo not drawn) [D.42, 3-methyl-4-[1-methyl-3-(2-pyridyl)-4,6,7,8-tetrahydropyrazolo[3,4-e][1,4]thiazepin-4-yl]phenol]",> 50,< 100,–
Cc1cc(-c2nn(C)c3c2C(c2ccc(Cl)cc2C)SCCN3)no1 (stereo not drawn) [D.43],< 50,< 100,–
"Cc1cc(Br)ccc1C1SCCNc2onc(-c3ccccn3)c21 (stereo not drawn) [D.44, 4-(4-bromo-2-methyl-phenyl)-3-(2-pyridyl)-4,6,7,8-tetrahydroisoxazolo-[5,4-e][1,4]thiazepine]",< 50,< 100,–
Cc1cc(Cl)ccc1C1SC(C)(C)CNc2c1c(C1CC1)nn2C (stereo not drawn) [D.45],> 60,< 100,–
Cc1ccc(Cl)cc1C1SC(C)(C)CNc2c1c(C1CC1)nn2C (stereo not drawn) [D.46],< 50,< 100,–

Compound,Emax [1] [%],IC50 [2] [nM],A549 Emax ([1]; A549 Cell Assay to Measure Inflammation Markers)
COc1cc(Cl)ccc1C1SC(C)(C)CNc2c1c(C1CC1)nn2C (stereo not drawn) [D.47],< 50,100 to 1000,–
Cn1nc(C2CC2)c2c1NCC(C)(C)SC2c1ccc(Cl)cc1C(F)(F)F (stereo not drawn) [D.48],< 50,100 to 1000,–
Cc1ccc(C)c(C2SC(C)(C)CNc3c2c(C2CC2)nn3C)c1 (stereo not drawn) [D.49],< 50,< 100,–
Cc1cc(Cl)cnc1C1SC(C)(C)CNc2c1c(C1CC1)nn2C (stereo not drawn) [D.50],< 50,100 to 1000,–
"Cc1cc(Br)ccc1C1SC(C)CNc2c1c(C1CC1)nn2C (stereo not drawn) [D.51, 4-(4-bromo-2-methyl-phenyl)-3-cyclopropyl-1,6-dimethyl-4,6,7,8-tetrahydropyrazolo[3,4-e][1,4]thiazepine]",< 50,100 to 1000,–
Cc1cc(Br)ccc1C1SC(C)CNc2c1c(C1CC1)nn2C (stereo not drawn) [D.52],–,< 100,D (a compound with Emax<50%)
Cn1nc(C2CC2)c2c1NCC(C)(C)SC2c1ccc(Cl)cc1F (stereo not drawn) [D.53],< 50,< 100,–
Cc1ccc(Br)cc1C1SC(C)(C)C=Nc2c1c(C1CC1)nn2C (stereo not drawn) [D.54],< 50,1000 to 10000,–
"Cc1ccc(Br)cc1C1SC(C)(C)CNc2c1c(C1CC1)nn2C (stereo not drawn) [D.55, 4-(5-bromo-2-methyl-phenyl)-3-cyclopropyl-1,6,6-trimethyl-7,8-dihydro-4H-pyrazolo[3,4-e][1,4]thiazepine]",< 50,< 100,–
Cc1cc(F)ccc1C1SC(C)(C)CNc2c1c(C1CC1)nn2C (stereo not drawn) [D.56],< 50,< 100,–
Cc1cc(Cl)ccc1C1SC(C)(C)CNc2c1c(C)nn2C (stereo not drawn) [D.57],> 50,< 100,–
"Cc1cc(Br)ccc1C1SC(C)(C)CNc2c1c(C)nn2C (stereo not drawn) [D.58, 4-(4-bromo-2-methyl-phenyl)-1,3,6,6-tetramethyl-7,8-dihydro-4H-pyrazolo[3,4-e][1,4]thiazepine]",> 50,< 100,–
Cc1cc(Cl)ccc1C1SCCNc2c1c(C)nn2C (stereo not drawn) [D.59],< 50,100 to 1000,–
Cc1nn(C)c2c1C(c1ccc(Br)cc1Cl)SC(C)(C)CN2 (stereo not drawn) [D.60],> 50,< 100,–
Cc1cc(C(F)(F)F)ccc1C1SC(C)(C)CNc2c1c(C)nn2C (stereo not drawn) [D.61],< 50,< 100,–
"Cc1cc(Br)ccc1C1SC(C)CNc2c1c(C)nn2C (stereo not drawn) [D.62, 4-(4-bromo-2-methyl-phenyl)-1,3,6-trimethyl-4,6,7,8-tetrahydropyrazolo[3,4-e][1,4]thiazepine]",< 50,100 to 1000,–
Cc1n[nH]c2c1C(c1ccc(Cl)cc1Cl)SC(C)(C)CN2 (stereo not drawn) [D.63],< 50,1000 to 10000,–
CC(C)c1nn(C)c2c1C(c1ccc(Cl)cc1Cl)SC(C)(C)CN2 (stereo not drawn) [D.64],< 50,100 to 1000,–
Cc1nn(C)c2c1C(c1ccc(Cl)cc1Cl)SC1(CCCC1)CN2 (stereo not drawn) [D.65],< 50,< 100,–

Compound,Emax [1] [%],IC50 [2] [nM],A549 Emax ([1]; A549 Cell Assay to Measure Inflammation Markers)
Cc1nn(C)c2c1C(c1ccc(Cl)cc1Cl)SC1(CCC1)CN2 (stereo not drawn) [D.66],< 50,< 100,–
Cc1nn(C)c2c1C(c1ccc(Cl)cc1Cl)SC1(CCOCC1)CN2 (stereo not drawn) [D.67],< 50,< 100,–
"Cc1nn(C)c2c1C(c1ccc(Cl)cc1)SC(CCO)CN2 (stereo not drawn) [D.68, 2-(4-(4-chlorophenyl)-1,3-dimethyl-4,6,7,8-tetrahydro-1H-pyrazolo[3,4-e][1,4]thiazepin-6-yl)ethanol 2,2,2-trifluoracetate]",< 50,< 100,–
Cc1c(Br)cccc1C1SC(C)(C)CNc2c1c(C1CC1)nn2C (stereo not drawn) [D.69],< 50,100 to 1000,–
Cc1cc(Cl)ccc1C1SC(C)(C)CNc2c1c(C)nn2C1CCCC1 (stereo not drawn) [D.70],< 50,100 to 1000,–
Cc1cc(S(C)(=O)=O)ccc1C1SC(C)(C)CNc2c1c(C)nn2C (stereo not drawn) [D.71],< 50,1000 to 10000,–
Cc1cc(Cl)ccc1C1SCCNc2c1c(C1CCCO1)nn2C (stereo not drawn) [D.72],< 50,100 to 1000,–
"Cc1cc(Cl)ccc1C1SCCNc2c1c(O)nn2C (stereo not drawn) [D.73, 4-(4-chloro-2-methyl-phenyl)-1-methyl-4,6,7,8-tetrahydropyrazolo[3,4-e][1,4]thiazepin-3-ol]",< 50,> 10000,–
Cn1nc(C2CC2)c2c1NCC(C)(C)SC2c1ccc(Cl)cc1Cl (stereo not drawn) [D.74],< 50,< 100,–
Cc1nn(C)c2c1C(c1ccc3[nH]ncc3c1)SCCN2 (stereo not drawn) [D.76],< 50,> 10000,–
Cn1nc(C2CCCC2)c2c1NCCSC2c1ccc(Cl)cc1Cl (stereo not drawn) [D.77],< 50,< 100,–
Cn1nc(C2CCCC2)c2c1NCC(C)(C)SC2c1ccc(Cl)cc1Cl (stereo not drawn) [D.79],< 50,< 100,–
Cc1nn(C)c2c1C(c1ccc(Cl)cc1Cl)SCCN2 (stereo not drawn) [D.80],< 50,100 to 1000,–
Cn1nc(-c2ccc(Cl)cc2)c2c1NCCSC2c1ccc(Cl)cc1Cl (stereo not drawn) [D.82],< 50,100 to 1000,–
Cn1nc(-c2ccccc2)c2c1NCCSC2c1ccc(Cl)cc1Cl (stereo not drawn) [D.83],< 50,< 100,–
CC(C)c1nn(C)c2c1C(c1ccc(Cl)cc1Cl)SCCN2 (stereo not drawn) [D.84],< 50,100 to 1000,–
Cn1nc(C(C)(C)C)c2c1NCCSC2c1ccc(Cl)cc1Cl (stereo not drawn) [D.85],< 50,100 to 1000,–
Cn1nc(-c2cc(F)cc(F)c2)c2c1NCCSC2c1ccc(Cl)cc1Cl (stereo not drawn) [D.90],< 50,< 100,–
CC(C)Cc1nn(C)c2c1C(c1ccc(Cl)cc1Cl)SCCN2 (stereo not drawn) [D.92],< 50,< 100,–
